Experimental data taken from patent publication US20090156582A1, “Pyrazole Compound” (priority 2005, published 2009).

Target: T1, recombinant GSK3β enzyme (human GSK3β) (Homo sapiens, UniProt P49841)
T1 construct: FLAG (N); made in house; host or cells: Sf-21 insect cells, recombinant baculovirus (pFASTBAC1 / BAC-TO-BAC)
Experiment: Measurement of GSK3β inhibitory activity
Format: biochemical
Conditions: glycogen synthase peptide substrate, Kinase Glo luminescence, read-out: IC50 (concentration of test compound needed for 50% inhibition of luminescent intensity), GSK3β inhibitory activity
Source text: Human GSK3β gene was cloned by a PCR method using a primer set:
prepared using human brain cDNA (Clontech; trade name: QUICK-Clone cDNA) as a template and in reference to the base sequence of GSK3β gene registered in GenBank under Accession Number NM_002093.
PCR was done according to the protocol attached to KOD plus DNA polymerase (Toyo Boseki Kabushiki Kaisha). The obtained PCR product was electrophoresed on agarose gel (1%), and 1.2 kb of DNA fragment including GSK3β gene was collected from the gel and then digested with restriction enzymes EcoR I and Sal I. The restriction enzyme-treated DNA was electrophoresed on agarose gel (1%). The obtained DNA fragment was collected, and ligated to the plasmid pFASTBAC1 (Invitrogen), which had been digested with restriction enzyme EcoR I and Sal I, to produce expression plasmid pFB-GSK3B. The base sequence of insertion fragment was confirmed to find that it corresponded to the objective sequence. In addition, virus stock BAC-GSK3B of recombinant Baculovirus was prepared using BAC-TO-BAC Baculovirus Expression System (Invitrogen).
Sf-21 cells (Invitrogen) were seeded on Sf-900 II SFM medium (Invitrogen)(150 ml) containing 10% fetal calf serum at 1×10^6 cells/ml, and cultured at 27° C. for 24 hr. The virus stock […] obtained above of recombinant Baculovirus was added by 150 μl to the obtained culture medium, and the cells were cultured for another 60 hr. The culture medium was centrifuged (3000 rpm, 10 min) to separate the cells, and the cells were washed once with PBS. The cells were suspended in 10 ml of cell lysis buffer (25 mM HEPES (pH 7.5), 1% Triton X, 130 mM sodium chloride, 1 mM EDTA, 1 mM Dithiothreitol, 25 mM β-glycerophosphate, Protease inhibitor Complete (Boehringer), 1 mM Sodium orthovanadate), treated 4 times using a homogenizer (POLYTRON) at 20000 rpm for 30 sec to disrupt the cells. The disrupted solution of cells was centrifuged (40000 rpm, 45 min.), and GSK3β was purified from the obtained supernatant using Anti-FLAG M2 Affinity Gel (Sigma Ltd.).
10 μl of ATP solution (2.5 μM ATP) was added to the obtained mixture, and the mixture was reacted at room temperature for 30 min. Kinase Glo Reagent (Promega) (50 μl) was added to the reaction solution to stop the reaction. After reaction at room temperature for 10 min, the luminescent intensity was measured using ARVO multilabel counter (PerkinElmer Life Sciences). The concentrations of the test compounds needed for 50% inhibition of luminescent intensity (IC50 value) were calculated by PRISM 3.0 (GraphPad Software).

T1 sequence (P49841 whole entry): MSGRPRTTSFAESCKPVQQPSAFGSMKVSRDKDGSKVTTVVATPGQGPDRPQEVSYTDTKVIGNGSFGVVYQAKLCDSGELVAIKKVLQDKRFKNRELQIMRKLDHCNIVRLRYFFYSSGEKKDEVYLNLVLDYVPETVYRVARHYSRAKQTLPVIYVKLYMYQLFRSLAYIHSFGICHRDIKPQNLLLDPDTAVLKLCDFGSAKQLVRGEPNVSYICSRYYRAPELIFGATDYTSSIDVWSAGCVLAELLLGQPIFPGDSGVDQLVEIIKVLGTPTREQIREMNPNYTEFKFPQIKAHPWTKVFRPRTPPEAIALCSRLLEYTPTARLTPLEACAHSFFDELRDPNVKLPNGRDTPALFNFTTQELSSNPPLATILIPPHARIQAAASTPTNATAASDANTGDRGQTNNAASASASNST

| IC50 | SMILES |
| --- | --- |
| < 100 nM | O=C(Nc1c[nH]nc1C(=O)NCc1ccco1)c1ccccn1 [Example 347, N-(3-(((2-furylmethyl)amino)carbonyl)-1H-pyrazol-4-yl)pyridine-2-carboxamide] |
| < 100 nM | CC(C)NC(=O)c1n[nH]cc1NC(=O)CCc1ccccc1 [compound 024] |
| 171 nM | CCCN(CCC)S(=O)(=O)c1ccc(C(=O)Nc2c[nH]nc2C(=O)NC(C)C)cc1 [compound 033] |
| 245 nM | COc1ccccc1CC(=O)Nc1c[nH]nc1C(=O)NC(C)C [compound 025] |
| < 100 nM | CC(=O)Nc1cccc(C(=O)Nc2c[nH]nc2C(=O)NCCc2ccccc2)c1 [Example 137, 4-{[3-(acetylamino)benzoyl]amino}-N-(2-phenylethyl)-1H-pyrazole-3-carboxamide] |
| < 100 nM | O=C(Nc1ccccc1)c1n[nH]cc1NC(=O)c1c[nH]c2ccccc12 [compound 097] |
| < 100 nM | CC(=O)Nc1cccc(C(=O)Nc2c[nH]nc2C(=O)NC2CCCC2)c1 [compound 075] |
| < 100 nM | CC(=O)Nc1cccc(C(=O)Nc2c[nH]nc2C(=O)NC(C)C)c1 [compound 034] |
| < 100 nM | CC(=O)Nc1cccc(C(=O)Nc2c[nH]nc2C(=O)NCCOC(C)C)c1 [Example 371, 4-((3-(acetylamino)benzoyl)amino)-N-(2-isopropoxyethyl)-1H-pyrazole-3-carboxamide] |
| < 100 nM | COc1ncccc1C(=O)Nc1c[nH]nc1C(=O)NC1CCCC1 [Example 365, N-(3-((cyclopentylamino)carbonyl)-1H-pyrazol-4-yl)-2-methoxynicotinamide] |
| < 100 nM | CC(C)NC(=O)c1n[nH]cc1NC(=O)c1ccc(-c2ccccc2)cc1 [compound 028] |
| < 100 nM | O=C(Nc1c[nH]nc1C(=O)NCc1ccco1)c1ccccc1 [compound 152] |
| < 100 nM | CC(C)NC(=O)c1n[nH]cc1NC(=O)c1ccc(F)cc1F [compound 031] |
| < 100 nM | CC(C)NC(=O)c1n[nH]cc1NC(=O)c1cnccn1 [compound 037] |
| < 100 nM | COCCNC(=O)c1n[nH]cc1NC(=O)c1ccccn1 [Example 356, N-(3-(((2-methoxyethyl)amino)carbonyl)-1H-pyrazol-4-yl)pyridine-2-carboxamide] |
| < 100 nM | CC(C)NC(=O)c1n[nH]cc1NC(=O)c1ccc2[nH]ccc2c1 [compound 036] |
| < 100 nM | O=C(Nc1c[nH]nc1C(=O)NC1CCCC1)c1ccccc1 [compound 070] |
| < 100 nM | CC(C)OCCNC(=O)c1n[nH]cc1NC(=O)c1ccccn1 [Example 357, N-(3-(((2-isopropoxyethyl)amino)carbonyl)-1H-pyrazol-4-yl)pyridine-2-carboxamide] |
| < 100 nM | CC(C)NC(=O)c1n[nH]cc1NC(=O)c1ccccn1 [Example 345, N-(3-((isopropylamino)carbonyl)-1H-pyrazol-4-yl)pyridine-2-carboxamide] |
| < 100 nM | CC(=O)Nc1cccc(C(=O)Nc2c[nH]nc2C(=O)NCCS(=O)(=O)c2ccc(Cl)cc2)c1 [Example 383, 4-((3-(acetylamino)benzoyl)amino)-N-(2-((4-chlorophenyl)sulfonyl)ethyl)-1H-pyrazole-3-carboxamide] |
| < 100 nM | O=C(Nc1c[nH]nc1C(=O)Nc1ccccc1)c1ccccn1 [Example 341, N-(3-(anilinocarbonyl)-1H-pyrazol-4-yl)pyridine-2-carboxamide] |

More lines, now with the values behind:

| SMILES | IC50 |
| --- | --- |
| O=C(Nc1c[nH]nc1C(=O)NCc1ccccc1)c1ccc(F)cc1F [Example 113, N-benzyl-4-[(2,4-difluorobenzoyl)amino]-1H-pyrazole-3-carboxamide] | < 100 nM |
| O=C(Nc1c[nH]nc1C(=O)NCc1ccco1)c1cnccn1 [compound 162] | < 100 nM |
| O=C(COc1ccccc1)Nc1c[nH]nc1C(=O)NC1CCCC1 [compound 062] | < 100 nM |
| O=C(NC1CCCC1)c1n[nH]cc1NC(=O)c1c(F)cccc1F [Example 366, N-cyclopentyl-4-((2,6-difluorobenzoyl)amino)-1H-pyrazole-3-carboxamide] | < 100 nM |
| CC(C)(C)C(=O)Nc1c[nH]nc1C(=O)NCCC#N [Example 415, N-(2-cyanoethyl)-4-(2,2-dimethylpropanoylamino)-1H-pyrazole-3-carboxamide] | < 100 nM |
| O=C(Nc1c[nH]nc1C(=O)NCCCOc1ccccc1)c1ccccn1 [Example 391, N-(3-(((3-phenoxypropyl)amino)carbonyl)-1H-pyrazol-4-yl)pyridine-2-carboxamide] | < 100 nM |
| Cc1ncccc1C(=O)Nc1c[nH]nc1C(=O)NC1CCCC1 [Example 363, N-(3-((cyclopentylamino)carbonyl)-1H-pyrazol-4-yl)-2-methylnicotinamide] | < 100 nM |
| O=C(Nc1c[nH]nc1C(=O)NCc1ccco1)c1ccc(C(F)(F)F)cc1 [compound 154] | 271 nM |
| O=C(Nc1c[nH]nc1C(=O)NC1Cc2ccccc2C1)c1ccccn1 [Example 339] | < 100 nM |
| CC1(C)C2CC[C@@]1(CS(=O)(=O)Nc1c[nH]nc1C(=O)NC1CCCC1)C(=O)C2 [compound 240] | 208 nM |
| O=C(/C=C/c1ccccc1)Nc1c[nH]nc1C(=O)NCc1ccco1 [Example 148, N-(2-furylmethyl)-4-{[(2E)-3-phenylprop-2-enoyl]amino}-1H-pyrazole-3-carboxamide] | 388 nM |
| O=C(COc1ccccc1)Nc1c[nH]nc1C(=O)NCc1ccco1 [Example 145, N-(2-furylmethyl)-4-[(phenoxyacetyl)amino]-1H-pyrazole-3-carboxamide] | < 100 nM |
| O=C(Nc1c[nH]nc1C(=O)NCCSc1ccccc1)c1ccccn1 [Example 361, N-(3-(((2-(phenylthio)ethyl)amino)carbonyl)-1H-pyrazol-4-yl)pyridine-2-carboxamide] | < 100 nM |
| CCCN(CCC)S(=O)(=O)c1ccc(C(=O)Nc2c[nH]nc2C(=O)NCCc2ccccc2)cc1 [Example 136, 4-({4-[(dipropylamino)sulfonyl]benzoyl}amino)-N-(2-phenylethyl)-1H-pyrazole-3-carboxamide] | 485 nM |
| O=C(Nc1c[nH]nc1C(=O)NCc1ccco1)c1ccc(Oc2ccccc2)cc1 [compound 157] | 140 nM |
| O=C(CCc1ccccc1)Nc1c[nH]nc1C(=O)NCc1ccco1 [Example 149, N-(2-furylmethyl)-4-[(3-phenylpropanoyl)amino]-1H-pyrazole-3-carboxamide] | 334 nM |
| N#Cc1ccc(NCCNC(=O)c2n[nH]cc2NC(=O)c2ccccn2)nc1 [Example 350] | < 100 nM |
| O=C(Cc1c[nH]c2ccccc12)Nc1c[nH]nc1C(=O)Nc1ccccc1 [compound 089] | 379 nM |
| O=C(NCCc1ccccc1)c1n[nH]cc1NC(=O)C1CCCCC1 [Example 124, 4-[(cyclohexylcarbonyl)amino]-N-(2-phenylethyl)-1H-pyrazole-3-carboxamide] | < 100 nM |
| CNC(=O)c1n[nH]cc1NC(=O)C(c1ccccc1)c1ccccc1 [compound 003] | < 100 nM |
| O=C(Nc1c[nH]nc1C(=O)NCCc1ccc(Br)cc1)c1ccccn1 [Example 351, N-(3-(((2-(4-bromophenyl)ethyl)amino)carbonyl)-1H-pyrazol-4-yl)pyridine-2-carboxamide] | < 100 nM |
| CCC(CC)C(=O)Nc1c[nH]nc1C(=O)NC1CCCC1 [Example 368, N-cyclopentyl-4-((2-ethylbutanoyl)amino)-1H-pyrazole-3-carboxamide] | < 100 nM |
| O=C(CCc1ccccc1)Nc1c[nH]nc1C(=O)Nc1ccccc1 [compound 087] | 115 nM |
| COc1ccccc1CC(=O)Nc1c[nH]nc1C(=O)NCCc1ccccc1 [Example 129, 4-{[(2-methoxyphenyl)acetyl]amino}-N-(2-phenylethyl)-1H-pyrazole-3-carboxamide] | 157 nM |
| O=C(Nc1c[nH]nc1C(=O)NC1CCCC1)c1cccc2c1OCC2 [Example 362, N-cyclopentyl-4-((2,3-dihydro-1-benzofuran-7-ylcarbonyl)amino)-1H-pyrazole-3-carboxamide] | < 100 nM |
| O=C(Nc1c[nH]nc1C(=O)NCCc1c[nH]c2ccccc12)c1ccccn1 [Example 348, N-(3-(((2-(1H-indol-3-yl)ethyl)amino)carbonyl)-1H-pyrazol-4-yl)pyridine-2-carboxamide] | < 100 nM |
| CCCN(CCC)S(=O)(=O)c1ccc(C(=O)Nc2c[nH]nc2C(=O)NC2CCCC2)cc1 [compound 074] | 299 nM |
